Source: patent US5578639A, “PLA2 inhibitors and their use for inhibition of intestinal cholesterol absorption” (Warner-Lambert Company, priority 1995, dated 1996)
Read-outs that look alike come from different tables or passages of the source.

Tests used:
[1] = test system: plasma lipids; assay: Plasma lipids in cholesterol-fed rats after oral PLA2 inhibitor; type: in vivo; details: 100 mg/kg oral gavage, about 8 hours after start of feeding
Description: Ultimately, agents that inhibit the absorption of dietary cholesterol should suppress postprandial increases in plasma cholesterol. This was tested with several. PLA2 inhibitors in cholesterol-fed rats. The general protocol consisted of preparing a carboxymethyl cellulose/Tween 20 dispersion of the compound of interest and administering it at a dose of 100 mg/kg by oral gavage to rats previously trained to meal-feed. Immediately following administration of the inhibitor, the rats were fed a lipid-rich meal of chow supplemented with cholesterol, peanut oil, and cholic acid.

[2] = target: T1, porcine pancreatic PLA2 (Sus scrofa, UniProt P00592); assay: Fluorescence assay of porcine pancreatic PLA2 inhibition in vitro; type: biochemical
T1 construct: purchased Sigma Chemical Company (St. Louis, Mo.); host or cells: porcine pancreas
T1 sequence (P00592 23-146): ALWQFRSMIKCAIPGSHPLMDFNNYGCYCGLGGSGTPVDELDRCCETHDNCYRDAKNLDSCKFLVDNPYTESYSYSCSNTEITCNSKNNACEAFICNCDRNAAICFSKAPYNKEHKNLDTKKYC
From the text: The IC50 values for inhibition of porcine pancreatic PLA2, in vitro, are included for comparison with the in vivo activities.
A sensitive fluorescence method was used to measure the activity of pancreatic phospholipase A2 (PLA2) in vitro. PLA2 hydrolyzes the ester bond linking fatty acids to the sn-2 position in glycerophospholipids. Several types of PLA2 exist, including those isolated from venoms, synovial fluid, platelets, immunoactive cell types and the pancreas. The pancreatic PLA2 was the subject of this experiment because of its fundamental role in promoting lipid absorption in the intestine.
PLA2 activity was detected by the loss of pyrene excimer fluorescence that occurs when (1-pyrenyl)decanoic acid is hydrolysed from the sn-2 position of 1,2-bis-(1-pyrenedecanoyl)sn-glycero-3-phosphocholine ((P10)2 PC) by the action of PLA2. The use of similar pyrene-labeled PC substrates to detect PLA2 activity has been described previously (Radvanyi F., Jordan L., Russo-Marie F., Bon C., "A sensitive and continuous fluorometric assay for phospholipase A2 using pyrene-labeled phospholipids in the presence of serum albumin." Anal. Biochem., 177:103-109 (1989)). The full photophysical basis for the assay is described elsewhere (Birks J. B., "Photophysics of Aromatic Molecules," Wiley Interscience, New York, pp 301-371 (1970)).
In brief, pyrene excimers are formed by the complexation of one pyrene moiety in the ground-state with one pyrene moiety in the excited state to form an excited-state dimer (excimer) which fluoresces at longer wavelengths (475 nm emission maximum) than the wavelength range in which excited-state pyrene monomers fluoresce (370-400 nm). Excimer formation is dependent on the concentration of pyrene moieties. (P10)2 PC emits excimer fluorescence almost exclusively due to the fixed juxtaposition of the pyrene chromophores. The substrate concentration is sufficiently dilute so that excimer formation between the products of PLA2 action, namely lysoPY10PC and the (1-pyrenyl)decanoic acid, is insignificant.
In general, this assay scheme should have been applicable to the study of any type of PLA2. However, since pancreatic PLA2 is unique from the other PLA2 's in that it operates almost exclusively against micellized PC, the PC substrate in this assay was micellized with 1 mM deoxycholic acid. The PC component of the micelles consisted of 5 μM (P10)2 PC substrate diluted with a 99-fold excess (495 μM) of 1-oleyl-2-palmityl phosphatidylcholine (OPPC). The OPPC was inert to PLA2 hydrolysis because it contained ether-linked fatty alkyl chains in place of the ester-linked fatty acyl chains of normal PC. OPPC was included to 1) dilute the micellar (P10)2 PC concentration thereby minimizing intermolecular excimer formation, and 2) preserve the integrity of the micelles against the action of PLA2 since nonspecific micelle disruption could lead to nonlinear kinetics and fluorescence changes independent of lipolysis.
Phospholipase A2 (porcine pancreas), bovine serum albumin (BSA) (fraction V, essentially fatty acid-free) and sodium deoxycholate were obtained from Sigma Chemical Company, (St. Louis, Mo.). 1-Oleyl-2-palmityl-DL-phosphatidylcholine (OPPC) was ordered from Serdary Research Laboratories, Inc. (London, Ont., Canada). 1,2-Bis-(1-pyrenedecanoyl)-sn-glycero-3-phosphatidylcholine ((P10)2 PC) was obtained from Molecular Probes, Inc. (Eugene, Oreg.).
HEPES buffer (SHE) contained 150 mM NaCl, 20 mM HEPES (N-[2-hydroxyethyl]piperazine-N'-[2-ethanesulfonic acid]) and 1 mM EDTA (ethylenediamine tetraacetic acid) at pH 8.0.
1 mM (P10)2 PC in chloroform was prepared by adding 1 mL chloroform to a vial containing 1 mg of (P10)2 PC, as shipped by Molecular Probes. The actual concentration was determined spectrophotometrically by diluting 10 μL of the chloroform solution in 2 mL of ethanol. The absorbance spectrum of the ethanol solution was measured between 380 nm to 280 nm (Beckman DU-64). […]

[3] = test system: PLA2; details: methyl-phosphatidic acid substrate; Jain et al. 1992; read-out: IC50 in "scooting-mode" assay; cited from earlier work
[4] = test system: intestinal lipid absorption; assay: Lymph-fistula rats, diester and diether PC analogs; type: in vivo, rat
From the text: The intestinal lipid absorption pathway was isolated in the rat by inserting an infusion cannula in the proximal duodenum and implanting a second cannula in the mesenteric lymph vessel to intercept the lipoprotein output from the intestine. This lymph-fistula rat model was used to investigate the effect of pancreatic PLA2 inhibition, in situ, on intestinal absorption of infused lipid emulsions. In a typical experiment, cannulae were implanted the day before the experimental infusion. Following surgery, the animals were infused (2.5 mL/hr) with isotonic saline containing dextrose to flush the GI tract and obtain basal levels of lymphatic lipid output. On the day of the experiment, infusion of the dextrose recovery solution was continued for 1 hour to collect a basal lymph fraction. At the start of the next hour, the intake of the duodenal infusion cannula was switched to a lipid emulsion of isotonic saline containing safflower oil (59 mM), cholesterol (5.2 mM), PC (3.3 mM) and taurocholic acid (1.9 mM). One hour lymph fractions were collected until the end of the experiment. The lipid content (mass) of lymph fractions was determined by HPLC with a mass-sensitive, evaporative light-scattering detector.
PC analogs in which the normal acyl chains are replaced by alkyl carbon chains linked to the glycerol backbone by ether bonds have physical-chemical properties similar to conventional diester PC molecules but are not hydrolyzable by PLA2. To determine the significance of micellar PC hydrolysis in intestinal lipid absorption, a comparison was made of the mesenteric lymph lipid output from rats infused with lipid microemulsions prepared with 1,2-dipalmitoyl PC (DPPC(ester)) or 1,2-dipalmityl PC (DPPC(ether)) as the PC constituent. […] The total lymphatic CE output over the 12-hour period of DPPC(ether) infusion was only 47% of total CE output obtained with the DPPC(ester) emulsion.

[5] = test system: Caco-2 cells; assay: Caco-2 lipid absorption versus micellar phospholipid composition; type: cell-based, human
Description: Caco-2 cells were used as a tissue culture model of the human intestinal epithelium to compare the effects of phosphatidylcholine and lysophosphatidylcholine on lipid absorption and the subsequent re-esterification and secretion of micelle-derived lipids.
Caco-2 cell monolayers, grown on micropore membranes separating apical and basolateral culture solutions, were incubated with taurocholate, mixed-lipid micelles composed of 5 mM taurocholic acid, 300 μM monooleoylglycerol, 500 μM [^3 H]oleic acid, 100 μM [^14 C]cholesterol, and 200 μM phospholipid consisting of various proportions of 1-palmitoyl-2-oleoyl phosphatidylcholine and 1-palmitoyl lysophosphatidylcholine. The micelles were added to the apical side of the cell monolayers. Phospholipid-free micelles were also tested for comparison. At the end of 6 hours of incubation, the radiolabeled lipid content of the cells and in the basolateral media were determined. Phospholipid content strongly influenced the absorption and metabolism of cholesterol (FIGS. 1, 2) but had only minimal effects on fatty acid uptake and metabolism (FIG. 3). Caco-2 monolayers incubated with micelles containing only phosphatidylcholine as the phospholipid absorbed 65% less [^14 C]cholesterol than cell monolayers incubated with phospholipid-free micelles.

[6] = test system: Caco-2 cells; assay: Caco-2 phospholipase A2-dependent cholesterol absorption, time course; type: cell-based, human
[7] = test system: cholesterol absorption; details: Rampone and Long 1977; cited from earlier work
[8] = test system: serum cholesterol; details: neomycin 1.5-2 g/day; β-sitosterol 3-50 g/day; cited from earlier work
[9] = porcine pancreatic PLA2, in vitro, read-out: In Vitro IC50 (porc. panc. PLA2)

IC50 [2, 9] [µM]	Compound	% Change in plasma lipids vs. Control: HDL Chol. [1] [%]	% Change in plasma lipids vs. Control: Total Chol. [1] [%]	% Change in plasma lipids vs. Control: non-HDL Chol. [1] [%]	% Change in plasma lipids vs. Control: TG [1] [%]	also measured
5.7	1-[4,4-bis(4-fluorophenyl)butyl]-3-(3-methoxyphenyl)-3-methyl-pyrrolidine [Compound C]	38	-30	-49		
2.2	CCCCCCC(c1ccc(O)c(C)c1)c1ccc(O)c(C)c1 [Compound A, 4,4'-heptylidenebis-2-methyl-phenol]	1	-24	-32	-11	
8.6	Cc1ccc(Nc2cccc(Cl)c2)c(/C=C/C(=O)O)c1 [Compound F, 2-(M-chloroanilino)-5-methyl-trans-cinnamic acid]	2	-15	-20	-5	
4.6	Cc1ccc(Nc2ccccc2F)c(/C=C/C(=O)O)c1 [Compound G, 2-(O-fluoroanilino)-5-methyl-trans-cinnamic acid]	15	-12	-21	-24	
	CCCCCCCCCCCCCCCCOCC(COP(=O)([O-])OCC[N+](C)(C)C)OCCCCCCCCCCCCCCCC (stereo not drawn) [DPPC(ether), 1,2-dipalmityl PC]					total lymphatic CE output relative to DPPC(ester) ([4]; 12-hour infusion): 47%; time until lymphatic cholesteryl ester output rose above basal ([4]; after initiation of lipid emulsion infusion): 8 h; onset of rise in lymphatic TG and PC output ([4]; following initiation of lipid infusion): not delayed; total lymphatic PC output relative to DPPC(ester) ([4]; infusion of lipid emulsion): 75%; total lymphatic TG output relative to DPPC(ester) ([4]; infusion of lipid emulsion): 71%
	CCCCCCCCCCCCCCCC(=O)OCC(O)COP(=O)([O-])OCC[N+](C)(C)C (stereo not drawn) [lysophosphatidylcholine, 1-palmitoyl lysophosphatidylcholine]					reversal of PC effect on cholesterol absorption ([5]; 6 hours, lysophosphatidylcholine substituted for phosphatidylcholine): reversed this effect, but only when the mole fraction of micellar lysophosphatidylcholine was greater than 50%; [3H]oleate-labeled PC synthesis relative to phospholipid-free micelles [6]: slight decrease; inhibition of cholesterol absorption by intestinal segments [7]: no inhibition
	CCCCCCCCCCCCCCCCOCC(COP(=O)([O-])OCC[N+](C)(C)C)OCCCCCCCCCCCCCCCC (stereo not drawn) [nonhydrolyzable phospatidylcholine]					absorption of lipids into cells (figure legend) ([4]; FIG. 9, nonhydrolyzable phosphatidylcholine): prevents absorption of lipids into cells
	CCCCCCCC/C=C\CCCCCCCC(=O)OC(COC(=O)CCCCCCCCCCCCCCC)COP(=O)([O-])OCC[N+](C)(C)C (stereo not drawn) [phosphatidylcholine, 1-palmitoyl-2-oleoyl phosphatidylcholine]					esterification of micellar [14C]cholesterol ([5]; FIG. 1C, micelles with 50% or more of choline lipid as PC): reduced to an even greater extent; inhibition at 200 µM ([5]; Homo sapiens, Caco-2, 6 h, read-out: [14C]cholesterol absorbed, reduction vs. phospholipid-free micelles): 65%; ACAT activity in cells ([5]; PC-containing micelles): diminished
	Neomycin					reductions in serum cholesterol levels [8]: up to 25%

Compound	IC50 [2, 9] [µM]	% Change in plasma lipids vs. Control: HDL Chol. [1] [%]	% Change in plasma lipids vs. Control: Total Chol. [1] [%]	% Change in plasma lipids vs. Control: non-HDL Chol. [1] [%]	% Change in plasma lipids vs. Control: TG [1] [%]	also measured
CCCCCCCC/C=C\CCCCCCCC(N)=O [Compound E, (Z)-9-octadecen-amide, reference compound]	2.4	2	-42	-56	-35	IC50 ([2]; FIG. 12, (P10)2 PC substrate, read-out: IC50 in the fluorescence assay): 3 µM; IC50 [3]: 0.1 µM
